Measured values as given in ChEMBL document CHEMBL3137381, “MMV Box Onchocerca lienalis screening set”.

Key:
Type in all cases: functional
[1] = test system: Onchocerca lienalis; assay: MMV: Percent motility assay at a compound concentration of 1.25e-5 M. Activity score legend: 3: Active, 2: Moderately active; 1: Inactive, 0: Toxic; details: at 12.5 µM
[2] = test system: Onchocerca lienalis; assay: MMV: Percent motility assay at a compound concentration of 3.1e-6 M. Activity score legend: 3: Active, 2: Moderately active; 1: Inactive, 0: Toxic; details: at 3.1 µM
[3] = test system: Onchocerca lienalis; assay: MMV: Percent motility assay at a compound concentration of 1.9e-7 M. Activity score legend: 3: Active, 2: Moderately active; 1: Inactive, 0: Toxic; details: at 0.19 µM
[4] = test system: Onchocerca lienalis; assay: MMV: Percent motility assay at a compound concentration of 7.8e-7 M. Activity score legend: 3: Active, 2: Moderately active; 1: Inactive, 0: Toxic; details: at 0.78 µM

Row | Compound | Motility [1] [%] | Motility [2] [%] | Motility [3] [%] | Motility [4] [%]
1 | CCOc1ccccc1CN1CCc2nc3cc(C(C)(C)C)nn3c(O)c2C1 | 100 | 100 | 100 | 100
2 | Cc1cc(N2CCCC2)nc(Nc2ccc(NC(=O)CCc3ccccc3)cc2)n1 | 13.33 | 66.66 | 100 | 100
3 | CN1CCN(c2ncnc3c2[nH]c2ccc(Cl)cc23)CC1 | 100 | 100 | 100 | 100
4 | O=C1c2ccccc2-c2nnc(-c3ccc(Br)cc3)cc21 | 100 | 100 | 100 | 100
5 | CCOC(=O)C1=C(C)N=c2sc(=Cc3cc(Cl)ccc3O)c(=O)n2C1c1ccc(OC)cc1 (configuration not stated) | 100 | 100 | 100 | 100
6 | Cc1nc2ccccc2c(O)c1CC=C(Cl)Cl | 100 | 100 | 100 | 100
7 | FC(F)(F)c1cccc(Nc2nc3ccccc3nc2Nc2cccc(C(F)(F)F)c2)c1 | 100 | 100 | 100 | 100
8 | CN(C)CCCNCc1ccc(-c2ccc(F)c(Cl)c2)o1.Cl | 100 | 100 | 100 | 100
9 | O=c1nc(C=Cc2ccc(Br)cc2)oc2ccccc12 | 100 | 100 | 100 | 100
10 | COc1ccc2nc(N)nc(C)c2c1 | 100 | 100 | 100 | 100
11 | CC(=O)c1ccc(NC(=O)CSc2nc(-c3ccccc3Cl)ns2)cc1 | 100 | 100 | 100 | 100
12 | COc1ccc(C(=O)NC(c2ccc(Cl)cc2Cl)c2cc(Cl)c3cccnc3c2O)cc1 (configuration not stated) | 100 | 100 | 100 | 100
13 | CCC(=O)Nc1nnc(Cc2ccc(OC)c(OC)c2)s1 | 100 | 100 | 100 | 100
14 | O=C(NCCCN1CCC(N2CCCCC2)CC1)C1=Cc2cc(Br)ccc2OC1 | 100 | 100 | 100 | 100
15 | Cc1ccnc(NC(c2cccc(OCc3ccccc3)c2)c2ccc3cccnc3c2O)c1 (configuration not stated) | 100 | 100 | 100 | 100
16 | O=c1cc(NC2CCN(CCCc3ccccc3)CC2)c2cc(Cl)ccc2o1 | 100 | 100 | 100 | 100
17 | Cc1ccc(OCCCCCCNCCO)c(C)c1 | 100 | 100 | 100 | 100
18 | COc1cccc(C(=O)Nc2ccc(-c3nc4ccccc4[nH]3)cc2)c1 | 100 | 100 | 100 | 100
19 | CC1CCN(Cc2c(O)ccc3cc(-c4nc5ccccc5s4)c(=O)oc23)CC1 | 100 | 100 | 100 | 100
20 | Cc1ccc2cc3c(N)c4c(C)ccc(C)c4nc3nc2c1 | 100 | 100 | 100 | 100
21 | CC(C)CCNCC(O)Cn1c2ccccc2c2ccccc21.Cl (configuration not stated) | 100 | 100 | 100 | 100
22 | CCOC(=O)c1cnc2ccc(Cl)cc2c1NCCCN(C)C | 100 | 100 | 100 | 100
23 | O=C(Nc1ccc(C23CC4CC(CC(c5ccccc5)(C4)C2)C3)cc1)c1cccs1 | 100 | 100 | 100 | 100
24 | O=C1c2ccccc2C2=Nc3ccccc3SC(c3cccc(F)c3)C12 (configuration not stated) | 100 | 100 | 100 | 100
25 | Cc1ccccc1OCCSc1nc2ccc(NC(=O)c3ccccc3)cc2s1 | 100 | 100 | 100 | 100
26 | CCOC(=O)c1cnc2c(C)cccc2c1Nc1ccc(C(C)=O)cc1 | 100 | 100 | 100 | 100
27 | Cc1ccc(C2CC(C(F)(F)F)n3nc(C(=O)N4CCN(C(c5ccccc5)c5ccccc5)CC4)cc3N2)cc1 (configuration not stated) | 100 | 100 | 100 | 100

Row | Compound | Motility [1] [%] | Motility [2] [%] | Motility [3] [%] | Motility [4] [%]
28 | Cc1ccc2nc(C)cc(Nc3cccc(C(F)(F)F)c3)c2c1.Cl | 100 | 100 | 100 | 100
29 | CC(C)(C)c1ccc(C(=O)Nc2c3c(nn2-c2cccc(Cl)c2)CSC3)cc1 | 100 | 100 | 100 | 100
30 | CCOc1cc2c(cc1OCC)C(c1cc(Cl)c(O)c(OCC)c1)NCC2 (configuration not stated) | 100 | 100 | 100 | 100
31 | COc1ccc(N2CCN(C(CNC(=O)CC(C)(C)C)c3ccc4c(c3)OCO4)CC2)cc1 (configuration not stated) | 100 | 100 | 100 | 100
32 | CCCCCCn1c(=N)n(CC(O)COc2cccc(C)c2)c2ccccc21.Cl (configuration not stated) | 100 | 100 | 100 | 100
33 | COc1ccc(-c2cc(=O)oc3c4c(ccc23)OCN(Cc2ccc(F)cc2)C4)cc1 | 100 | 100 | 100 | 100
34 | CCOC(=O)C1(Cc2ccccc2)CCN(Cc2cccc(OC)c2O)CC1 | 100 | 100 | 100 | 100
35 | Oc1ccc(C(=C(Cl)Cl)c2ccc(O)cc2)cc1 | 100 | 100 | 100 | 100
36 | CC(C)(C)c1ccc2c(c1)CN(Cc1ccc(Cl)cc1)CO2 | 100 | 100 | 100 | 100
37 | CCCCC(O)(c1ccc(Cl)cc1)C(CN1CCOCC1)c1ccc(Cl)cc1.Cl (configuration not stated) | 100 | 100 | 100 | 100
38 | COc1ccc(OC)c(C2C3=C(CC(C)(C)CC3=O)N(c3ccc(Cl)c(Cl)c3)C3=C2C(=O)CC(C)(C)C3)c1 | 100 | 100 | 100 | 100
39 | Cc1cc(=O)oc2c1ccc1oc(C(=O)c3ccccc3)c(C)c12 | 100 | 100 | 100 | 100
40 | COc1ccc(CN2CCN(Cc3ccccc3)CC2)c(O)c1 | 100 | 100 | 100 | 100
41 | COc1ccc2c(c1OC)C(=O)N1c3ccccc3N=C(c3ccc(C)cc3)CC21 (configuration not stated) | 100 | 100 | 100 | 100
42 | CCCCCCc1cc(O)c2c3c(c(=O)oc2c1)CCC(C)C3 (configuration not stated) | 100 | 100 | 100 | 100
43 | Cl.OC(CNCc1ccccc1)Cn1c2ccccc2c2ccccc21 (configuration not stated) | 100 | 100 | 100 | 100
44 | COc1ccc(CCNC(=O)c2cc(S(=O)(=O)N3CC(C)CC(C)C3)ccc2Sc2ccc(F)cc2)cc1OC (configuration not stated) | 100 | 100 | 100 | 100
45 | CC1=C(CC(=O)c2cccc([N+](=O)[O-])c2)C(=O)c2ccccc2C1=O | 100 | 100 | 100 | 100
46 | OC1CCCCC1C1(NC(=S)Nc2ccccc2)CCCCC1 (configuration not stated) | 100 | 100 | 100 | 100
47 | OC1=C2C(=Nc3ccccc3SC2c2ccc(Br)cc2)c2ccccc21 (configuration not stated) | 100 | 100 | 100 | 100
48 | COc1ccc(C)c2sc(N(Cc3cccnc3)C(=O)c3ccc(C#N)cc3)nc12 | 100 | 100 | 100 | 100
49 | COc1ccc(C(=O)C2CC2c2ccc(Cl)cc2)cc1 (configuration not stated) | 100 | 100 | 100 | 100
50 | CCCCCn1c(=N)n(CC(O)COc2cccc(C)c2)c2ccccc21.Cl (configuration not stated) | 100 | 100 | 100 | 100
51 | O=c1c2c([nH]c3ccccc13)CCCC2 | 100 | 100 | 100 | 100
52 | CCN1CCN(c2c(C(=O)c3ccccc3)cnc3cc(OC)c(OC)cc23)CC1 | 100 | 100 | 100 | 100
53 | Cc1ccc(S(=O)(=O)c2c(COC(=O)c3cccc(C)c3)c(-c3ccccc3)nn2C)cc1 | 100 | 100 | 100 | 100
